Among the data in ChEMBL document CHEMBL1127008, “Synthesis of myo-inositol 1,2,4,5-tetrakisphosphate, a Ca2+-mobilising tetrakisphosphate with a potency similar to myo-inositol 1,4,5-trisphosphate” (Bioorg Med Chem Lett, 1993) are EC50, Km and Ki values, retold here.

The nature of test [1]: Compound was evaluated for its ability to mobilize calcium from [Ca(2+)]-preloaded SH-SY5Y cells permeabilised using saponin. In kind it is functional, cell-based. The note with it: Homo sapiens.
For a further test, the species on record is Rattus norvegicus. The test can be described thus: Enzyme kinetics constant (Km value) was determined in rat brain homogenate […]. It counts as functional.
For test [2], the species on record is Homo sapiens. Description: Enzyme kinetics constant (Km value) was determined in human erythrocyte membrane […]. It counts as functional.
A short description of test [3]: Compound was evaluated for its ability to mobilize calcium in 1321NI cells. In kind it is functional, cell-based.
For test [4], the species on record is Homo sapiens. Description: Compound was evaluated for the inhibition of [3H]- Ins(1,4,5)P3 dephosphorylation by human erythrocyte membrane Ins(1,4,5)P3 5-phosphatase. It counts as functional.
Test [5] concerns the target Inositol 1,4,5-trisphosphate-gated calcium channel ITPR3 (Bos taurus, UniProt Q8WN95). Description: Compound was evaluated for its ability to displace [3H]Ins(1,4,5)P3 from membranes prepared from bovine adrenal corticles.
Test [6] in a line: Inhibition of Ins(1,4,5)P3 phosphorylation by rat brain homogenate. In kind it is functional.
Test [7] in a line: Compound was evaluated for its ability to mobilize calcium from [Ca(2+)]-preloaded SH-SY5Y cells permeabilised using saponin; devoid of [Ca2+] mobilising activity. In kind it is functional, cell-based, Homo sapiens.

Some results are limits rather than exact numbers.

Sequence of Inositol 1,4,5-trisphosphate-gated calcium channel ITPR3 (Q8WN95 whole entry): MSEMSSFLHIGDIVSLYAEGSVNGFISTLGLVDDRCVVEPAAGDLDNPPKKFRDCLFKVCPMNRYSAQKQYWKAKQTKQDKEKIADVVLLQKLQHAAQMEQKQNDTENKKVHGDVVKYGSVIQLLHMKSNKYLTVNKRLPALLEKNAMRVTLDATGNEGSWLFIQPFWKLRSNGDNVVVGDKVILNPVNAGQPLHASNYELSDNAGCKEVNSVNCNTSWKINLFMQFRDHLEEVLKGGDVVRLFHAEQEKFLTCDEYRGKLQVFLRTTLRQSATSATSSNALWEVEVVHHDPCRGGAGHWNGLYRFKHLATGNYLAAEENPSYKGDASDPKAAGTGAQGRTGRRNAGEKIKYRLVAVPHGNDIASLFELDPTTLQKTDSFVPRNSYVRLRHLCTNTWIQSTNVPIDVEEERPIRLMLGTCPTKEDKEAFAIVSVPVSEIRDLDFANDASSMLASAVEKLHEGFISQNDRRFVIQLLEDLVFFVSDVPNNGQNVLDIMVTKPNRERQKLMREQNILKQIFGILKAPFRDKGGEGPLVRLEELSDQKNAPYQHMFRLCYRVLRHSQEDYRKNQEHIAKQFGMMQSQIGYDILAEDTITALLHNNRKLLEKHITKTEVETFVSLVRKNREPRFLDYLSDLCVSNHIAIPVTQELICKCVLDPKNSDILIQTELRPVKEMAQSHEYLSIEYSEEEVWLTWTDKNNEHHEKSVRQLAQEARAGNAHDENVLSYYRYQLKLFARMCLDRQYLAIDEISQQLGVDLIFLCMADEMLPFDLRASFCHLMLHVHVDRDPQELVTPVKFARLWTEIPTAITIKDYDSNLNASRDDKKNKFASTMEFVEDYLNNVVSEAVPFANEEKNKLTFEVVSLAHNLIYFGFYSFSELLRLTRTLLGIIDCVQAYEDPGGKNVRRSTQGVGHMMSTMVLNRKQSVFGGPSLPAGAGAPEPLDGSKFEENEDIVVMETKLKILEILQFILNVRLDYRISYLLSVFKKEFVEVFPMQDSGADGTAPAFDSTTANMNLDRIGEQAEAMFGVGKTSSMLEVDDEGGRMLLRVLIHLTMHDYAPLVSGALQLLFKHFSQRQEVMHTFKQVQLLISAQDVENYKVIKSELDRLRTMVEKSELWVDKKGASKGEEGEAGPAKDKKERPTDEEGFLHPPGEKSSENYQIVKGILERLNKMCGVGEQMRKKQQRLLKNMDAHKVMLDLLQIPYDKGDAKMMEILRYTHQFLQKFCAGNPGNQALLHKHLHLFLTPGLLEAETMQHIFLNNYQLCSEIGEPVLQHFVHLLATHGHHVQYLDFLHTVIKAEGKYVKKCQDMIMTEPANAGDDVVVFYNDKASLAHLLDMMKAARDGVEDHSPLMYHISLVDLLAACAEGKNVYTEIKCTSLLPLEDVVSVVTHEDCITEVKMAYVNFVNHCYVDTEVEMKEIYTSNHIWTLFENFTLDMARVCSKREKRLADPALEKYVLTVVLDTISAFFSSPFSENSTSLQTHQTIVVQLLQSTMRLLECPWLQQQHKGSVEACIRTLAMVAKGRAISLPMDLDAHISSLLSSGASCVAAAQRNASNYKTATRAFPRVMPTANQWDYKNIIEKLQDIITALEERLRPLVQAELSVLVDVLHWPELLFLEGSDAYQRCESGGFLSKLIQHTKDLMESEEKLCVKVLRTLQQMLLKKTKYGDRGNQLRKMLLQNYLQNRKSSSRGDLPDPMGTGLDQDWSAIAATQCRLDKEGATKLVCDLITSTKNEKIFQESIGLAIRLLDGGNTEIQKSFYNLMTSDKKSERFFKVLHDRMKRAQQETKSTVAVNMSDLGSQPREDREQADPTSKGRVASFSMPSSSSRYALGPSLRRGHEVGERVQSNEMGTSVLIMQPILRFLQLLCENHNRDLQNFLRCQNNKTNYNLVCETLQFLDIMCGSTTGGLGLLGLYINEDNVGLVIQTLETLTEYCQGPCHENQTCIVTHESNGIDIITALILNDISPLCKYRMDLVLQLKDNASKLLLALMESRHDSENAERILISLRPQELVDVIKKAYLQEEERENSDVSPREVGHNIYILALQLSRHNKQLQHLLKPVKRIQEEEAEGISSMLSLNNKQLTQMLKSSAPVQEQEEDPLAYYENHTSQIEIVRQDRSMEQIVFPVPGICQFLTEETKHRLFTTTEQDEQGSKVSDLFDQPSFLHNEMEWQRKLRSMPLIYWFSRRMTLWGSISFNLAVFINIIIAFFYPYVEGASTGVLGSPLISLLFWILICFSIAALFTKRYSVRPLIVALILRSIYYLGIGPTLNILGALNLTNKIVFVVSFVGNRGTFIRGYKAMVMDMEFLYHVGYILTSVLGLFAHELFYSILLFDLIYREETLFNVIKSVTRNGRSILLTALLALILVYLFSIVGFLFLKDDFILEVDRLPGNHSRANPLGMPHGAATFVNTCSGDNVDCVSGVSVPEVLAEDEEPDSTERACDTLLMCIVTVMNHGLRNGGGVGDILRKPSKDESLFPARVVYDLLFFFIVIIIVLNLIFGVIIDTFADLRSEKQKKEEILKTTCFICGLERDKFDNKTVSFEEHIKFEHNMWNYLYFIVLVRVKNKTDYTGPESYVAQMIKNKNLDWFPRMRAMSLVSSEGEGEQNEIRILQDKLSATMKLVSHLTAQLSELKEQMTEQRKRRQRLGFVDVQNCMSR

On to `O=P(O)(O)O[C@@H]1[C@H](O)[C@H](O)[C@@H](OP(=O)(O)O)[C@H](OP(=O)(O)O)[C@H]1O` [INS(1,4,5)P3], for which the EC50 in test [1] was 52 nM. For the same molecule, the Km in the test listed under Rattus norvegicus was 1.5 µM; in the test filed under Homo sapiens [2] it was 31.8 µM.
Consider `O=C(OC1C(OP(=O)(O)O)C(OP(=O)(O)O)C(OC(=O)c2ccccc2)C(OP(=O)(O)O)C1OP(=O)(O)O)c1ccccc1` (centres undefined), for which the EC50 in test [3] is < 100 µM; in test [7], “Not Active”. Besides, the Ki was 15.9 µM in the test filed under Homo sapiens [4], < 3 µM in test [5] and 100 µM in test [6].
As to `O=P(O)(O)O[C@H]1[C@H](O)[C@@H](OP(=O)(O)O)[C@H](OP(=O)(O)O)[C@@H](OP(=O)(O)O)[C@H]1O`, the EC50 in test [1] worked out at 2100 nM.
